Here are results for three molecules from US8748441B2, “Therapeutic uses of quinazolinedione derivatives” (SANOFI, priority 2009, dated 2014).

By IC50 is commonly meant the concentration at which inhibition is half-maximal.

For one test, the system named is PDE8. The experiment in a line: PDE8 enzymatic assay equivalent to that described for PDE7. The class given is biochemical.
Another test deals with MG7 microglial cells. Description: In vitro model of microglial activation: interleukin-1β secretion by LPS-activated MG7 cells (ELISA). In kind it is cell-based, mouse. As to the method:
The compounds according to the invention have been evaluated in an in vitro model of microglial activation. After activation by lipopolysaccharide (LPS), the microglial cells secrete large amounts of interleukin-1, which amounts can be quantified by specific assaying in the cell supernatants.
Cultures of microglial cells of the MG7 line derived from the mouse cortex are incubated in the presence of variable concentrations of compounds according to the invention. After incubating at 37° C. for 1 hour, the cells are brought together with LPS, which induces the production of interleukin-1. After treating for 24 h, the amounts of interleukin-1β are measured in the culture supernatants by ELISA assay.
Background: An ELISA detects its analyte on a solid surface through an enzyme-linked reagent.

Consider `COc1ccc(Cn2c(=O)c3cc(OC(CF)CF)ccc3n(C3CCN(C=O)CC3)c2=O)cc1OC` [No. 11, 4-[3-(3,4-dimethoxybenzyl)-6-[2-fluoro-1-(fluoromethyl)ethoxy]-2,4-dioxo-3,4-dihydroquinazolin-1(2H)-yl]piperidine-1-carbaldehyde], for which the 50% inhibitory concentration (IC50) with PDE8 turned out to be 140 nM.

Regarding `N#Cc1cc(Cn2c(=O)c3cc(OC(CF)CF)ccc3n(C3CCN(C=O)CC3)c2=O)ccc1-c1ccccc1` [No. 294, 4-({6-[2-fluoro-1-(fluoromethyl)ethoxy]-1-(1-formylpiperidin-4-yl)-2,4-dioxo-1,4-dihydroquinazolin-3(2H)-yl}methyl)biphenyl-2-carbonitrile], the IC50 in the test with PDE8 came out at 15 nM.

In the case of `O=CN1CCC(n2c(=O)n(Cc3ccc(-c4cccs4)cc3)c(=O)c3cc(OC(CF)CF)c(F)cc32)CC1` [No. 297, 4-{7-fluoro-6-[2-fluoro-1-(fluoromethyl)ethoxy]-2,4-dioxo-3-(4-(thiophen-2-yl)benzyl)-3,4-dihydroquinazolin-1(2H)-yl}piperidine-1-carbaldehyde], the inhibition at 3 µM in the test with MG7 microglial cells (Mus musculus, at 3 μM, MG7 microglial cells activated by LPS, 24 h, read-out: maximum inhibitory effect on secretion of interleukin-1β) is 47%. Also, in the test on MG7 microglial cells (variable concentrations, 1 h preincubation, LPS 24 h), the “secretion of interleukin-1β by MG7 microglial cells activated by LPS” value is on record as “significantly decreases, in a concentration-dependent fashion”.
